How the values were obtained:
E. Coli = experiment: protection tests using mice, orally administered compounds (E. Coli); format: in vivo, mice infected with E. Coli; conditions: Escherichia coli, oral, protection test
Staph. aureus = experiment: protection tests using mice, orally administered compounds (Staph. aureus); conditions: Staphylococcus aureus, in Mus musculus, po, read-out: ED50 Staph. aureus
[1] = oral administration to mice, adverse effects; format: in vivo; conditions: orally administered, doses up to 1000 mg/kg
From the text: The compounds of the invention are also essentially non-toxic at therapeutically useful dose levels.

| Structure (SMILES) | ED50 (E. Coli) [mg/kg] | ED50 (Staph. aureus) [mg/kg] | adverse effects [1] |
| --- | --- | --- | --- |
| CO/N=C(\C(=O)N[C@@H]1C(=O)N2C(C(=O)OC(C)OC(C)=O)=C(COC(N)=O)CS[C@H]12)c1ccco1 (stereo partly drawn) [Cefuroxime axetil, cefuroxime axetil, reference compound] | 26 | 6 |  |
| CO[C@H]1CCC[C@H]2C1=C(C(=O)OC(C)OC(=O)OC1CCCCC1)N1C(=O)[C@H]([C@@H](C)O)[C@@H]21 (stereo partly drawn) [Example 1, 1-(Cyclohexyloxycarbonyloxy)ethyl (4S,8S,9R,10S,12R)-4-methoxy-10-(1'-hydroxyethyl)-11-oxo-1-azatricyclo-[7.2.0.0^3,8]undec-2-ene-2-carboxylate] | < 1 | < 1 | no adverse effects were observed |
| CO[C@H]1CCC[C@H]2C1=C(C(=O)OC(C)OC(=O)OC(C)C)N1C(=O)[C@H]([C@@H](C)O)[C@@H]21 (stereo partly drawn) [Example 3, 1-(Isopropyloxycarbonyloxy)ethyl (4S,8S,9R,10S,12R)-4-methoxy-10-(1'-hydroxyethyl)-11-oxo-1-azatricyclo-[7.2.0.0^3,8]undec-2-ene-2-carboxylate] | < 1 | < 1 |  |
| CO[C@H]1CCC[C@H]2C1=C(C(=O)OCOC(=O)C(C)(C)C)N1C(=O)[C@H]([C@@H](C)O)[C@@H]21 [Example 10, [(1,1-Dimethyl-ethyl)carbonyloxy]methyl (4S,8S, 9R, 10S, 12R) -4-methoxy-10-(1'-hydroxyethyl)-11-oxo-1-azatricyclo[7.2.0.0^3,8]undec-2-ene-2-carboxylate] | < 1 | < 1 |  |

Reference: patent publication US5587374A, “10(1-hydroxyethyl)-11-oxo-1-azatricyclo/7.2.0.0.^3.8/ undec-2-ene-2-carboxylic acid esters and a process for preparing thereof” (Glaxo SpA, priority 1990, dated 1996)
